For data set [1], the system named is HeLa cells. Put plainly: Assay 1 cell proliferation measurement (CTG, 72 h), HeLa. The format is cell-based, human. The note with it: Homo sapiens, HeLa; Assay 1, 72 h, Cell Titer Glo; read-out: HeLa IC50 [nM] (Cervical cancer). The gist of the method: (§1)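 CellTiter-Glo luminescence was read at treatment start (0 h plate) and after 72 h compound exposure at 37 °C. Doses were 2.5-fold steps, ten concentrations, top 100 nM final, 0.3% DMSO. Growth inhibition was scaled between 0 h and vehicle values, and IC50 was obtained by 4-parameter fitting.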
In general terms: In ATP-based viability assays light output follows the ATP content of the culture.

The test system of data set [2] is SK-MEL-3 cells. Put plainly: Assay 1 cell proliferation measurement (CTG, 72 h), SK-MEL-3. It is filed as cell-based, human. The note with it: Homo sapiens, SK-MEL3; Assay 1, 72 h, Cell Titer Glo; read-out: SK-MEL-3 IC50 [nM] (melanoma). The gist of the method:
as §1

Data set [3] addresses human full length PDE3B (Homo sapiens (Human), UniProt Q13370). Briefly: Assay 5 PDE3B enzyme inhibition (3H-cAMP SPA). It is filed as biochemical. The note with it: Sf9 cell extract. The gist of the method: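 Compounds in DMSO are mixed with diluted PDE3B extract from Sf9 cells, and reactions start on adding tritiated cAMP. After 60 min at room temperature, yttrium scintillation proximity beads terminate hydrolysis and signal is counted; IC50 values come from sigmoidal dose-response curves.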

The target in data set [4] is human full length PDE3A (Homo sapiens (Human), UniProt Q14432). Put plainly: Assay 4 PDE3A enzyme inhibition (3H-cAMP SPA). The format is biochemical. The note with it: Sf9 cell extract. The gist of the method: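 Hydrolysis of [8-3H]cAMP by Sf9-expressed full-length PDE3A was measured by scintillation proximity, with enzyme diluted to keep kinetics linear and substrate consumption below 70%. Incubation ran 60 min at room temperature at pH 7.5.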

Data set [5] concerns IGR37 cells. Put plainly: Assay 1 cell proliferation measurement (CTG, 72 h), IGR37. It is filed as cell-based. The settings on record: Homo sapiens, IGR-37, Cell Titer Glo, read-out: IGR37 IC50 [nM] (melanoma).
Data set [6] in a line: Assay 6 in vitro metabolic stability in cryopreserved human hepatocytes (CL, Fmax). It is filed as in vitro ADME. The note with it: 1 μM test compound; for Clblood: hepatic in vivo blood clearance calculated (well-stirred) from half-life in cryopreserved human hepatocytes; for Fmax: maximal oral bioavailability calculated from half-life in cryopreserved human hepatocytes. How it is done:
Assay 6 Method for Human Cryo Hepatocytes:
Investigation of In Vitro Metabolic Stability in Cryopreserved Human Hepatocytes (Including Calculation of Hepatic In Vivo Blood Clearance (CL) and Maximal Oral Bioavailability (Fmax))
Cryopreserved Hepatocytes (e.g. purchased from Celsis InVitroTechnologies) were briefly thawed, washed with 45 mL pre-warmed in in vitro GRO HT medium and centrifuged for 5 min at 50×g. The cell pellet was resuspended in 5 ml of Krebs-Henseleit […] (KHB). Cell viability was determined by trypan blue exclusion.
For the metabolic stability assay liver cells were distributed in WME containing 5% FCS to glass vials at a density of 1.0×10^6 vital cells/ml. The test compound was added to a final concentration of 1 μM. During incubation, the hepatocyte suspensions were continuously shaken at 580 rpm and aliquots were taken at 2, 8, 16, 30, 45 and 90 min, to which equal volumes of cold methanol were immediately added. Samples were frozen at −20° C. over night, after subsequently centrifuged for 15 minutes at 3000 rpm and the supernatant was analyzed with an Agilent 1290 HPLC-system with LCMS/MS detection.
The half-life of a test compound was determined from the concentration-time plot. From the half-life the intrinsic clearances were calculated. Together with the additional parameters liver blood flow, amount of liver cells in vivo and in vitro. The hepatic in vivo blood clearance (CL) and the maximal oral bioavailability (Fmax) was calculated.

Each structure is given as a SMILES string.

human full length PDE3B, sequence (Q13370 whole entry): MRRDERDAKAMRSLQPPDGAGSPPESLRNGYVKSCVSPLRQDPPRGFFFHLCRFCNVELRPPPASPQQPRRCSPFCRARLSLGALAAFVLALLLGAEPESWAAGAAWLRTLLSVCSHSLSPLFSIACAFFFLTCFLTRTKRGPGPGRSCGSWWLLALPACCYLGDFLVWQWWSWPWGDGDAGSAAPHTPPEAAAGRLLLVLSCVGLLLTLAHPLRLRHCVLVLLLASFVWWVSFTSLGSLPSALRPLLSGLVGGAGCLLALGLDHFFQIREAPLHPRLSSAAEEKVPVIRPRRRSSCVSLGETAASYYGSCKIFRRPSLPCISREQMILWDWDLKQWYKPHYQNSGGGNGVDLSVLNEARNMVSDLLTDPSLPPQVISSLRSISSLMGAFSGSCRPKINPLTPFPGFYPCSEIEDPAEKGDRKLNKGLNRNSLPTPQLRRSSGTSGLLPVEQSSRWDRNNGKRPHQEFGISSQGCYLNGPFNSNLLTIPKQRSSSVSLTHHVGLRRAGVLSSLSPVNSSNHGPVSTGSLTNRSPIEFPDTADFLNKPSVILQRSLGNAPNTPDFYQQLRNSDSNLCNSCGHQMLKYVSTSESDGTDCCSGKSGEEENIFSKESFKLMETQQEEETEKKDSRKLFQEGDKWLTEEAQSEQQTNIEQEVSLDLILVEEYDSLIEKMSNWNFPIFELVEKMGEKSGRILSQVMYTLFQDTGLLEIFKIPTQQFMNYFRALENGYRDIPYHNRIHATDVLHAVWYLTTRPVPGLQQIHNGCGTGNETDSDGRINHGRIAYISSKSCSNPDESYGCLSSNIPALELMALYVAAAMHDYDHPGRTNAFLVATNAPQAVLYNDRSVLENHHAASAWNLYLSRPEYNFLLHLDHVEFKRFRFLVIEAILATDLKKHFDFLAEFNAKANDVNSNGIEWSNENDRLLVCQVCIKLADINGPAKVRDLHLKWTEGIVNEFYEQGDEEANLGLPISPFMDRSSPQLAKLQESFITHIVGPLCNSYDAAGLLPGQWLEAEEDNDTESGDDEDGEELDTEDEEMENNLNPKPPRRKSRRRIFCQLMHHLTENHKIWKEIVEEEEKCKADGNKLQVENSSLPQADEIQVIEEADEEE
human full length PDE3A, sequence (Q14432 whole entry): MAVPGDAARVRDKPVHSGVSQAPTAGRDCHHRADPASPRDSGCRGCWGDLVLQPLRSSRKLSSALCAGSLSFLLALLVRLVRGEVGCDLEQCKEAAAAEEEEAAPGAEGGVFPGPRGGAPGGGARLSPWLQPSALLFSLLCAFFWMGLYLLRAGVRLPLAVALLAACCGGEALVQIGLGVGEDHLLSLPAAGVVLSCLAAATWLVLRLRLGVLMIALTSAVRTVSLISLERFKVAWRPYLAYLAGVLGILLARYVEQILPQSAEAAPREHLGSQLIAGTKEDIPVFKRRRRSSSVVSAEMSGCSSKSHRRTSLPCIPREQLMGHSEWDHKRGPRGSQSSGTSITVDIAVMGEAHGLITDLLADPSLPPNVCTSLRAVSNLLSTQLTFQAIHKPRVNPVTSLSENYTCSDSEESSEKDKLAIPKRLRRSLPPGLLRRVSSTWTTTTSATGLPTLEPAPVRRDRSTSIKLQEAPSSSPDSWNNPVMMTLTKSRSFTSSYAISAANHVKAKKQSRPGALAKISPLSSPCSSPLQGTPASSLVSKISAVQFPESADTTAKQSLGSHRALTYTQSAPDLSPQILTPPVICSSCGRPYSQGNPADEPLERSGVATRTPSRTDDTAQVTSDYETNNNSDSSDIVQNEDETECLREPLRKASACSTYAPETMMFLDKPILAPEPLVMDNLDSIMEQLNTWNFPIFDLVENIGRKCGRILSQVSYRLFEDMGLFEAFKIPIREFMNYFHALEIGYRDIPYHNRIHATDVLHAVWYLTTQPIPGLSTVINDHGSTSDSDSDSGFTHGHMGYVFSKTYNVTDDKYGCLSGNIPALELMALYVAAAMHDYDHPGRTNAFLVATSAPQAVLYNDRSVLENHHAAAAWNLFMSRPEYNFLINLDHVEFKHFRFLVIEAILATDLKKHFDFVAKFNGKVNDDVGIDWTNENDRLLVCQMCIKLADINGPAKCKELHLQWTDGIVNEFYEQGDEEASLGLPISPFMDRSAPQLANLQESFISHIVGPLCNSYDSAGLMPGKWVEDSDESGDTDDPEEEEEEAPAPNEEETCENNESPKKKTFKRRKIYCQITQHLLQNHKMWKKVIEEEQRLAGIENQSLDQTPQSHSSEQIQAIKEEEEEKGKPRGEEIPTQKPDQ

`CCC1(O)CCN(c2ccc(C3=NNC(=O)OC3)cc2C(F)(F)F)CC1` [Example 253, 5-[4-(4-Ethyl-4-hydroxypiperidin-1-yl)-3-(trifluoromethyl)phenyl]-3,6-dihydro-2H-1,3,4-oxadiazin-2-one]: the IC50 is 1 nM in data set [1]; 40 nM in data set [2]; 0.155 µM in data set [3]; 0.19 µM in data set [4]; 5 nM in data set [5].

For the molecule `CC(Nc1ccc(C2=NNC(=O)OC2)cc1C(F)(F)F)C1CC1` (racemic) [Example 240, (rac)-5-{4-[(1-cyclopropylethyl)amino]-3-(trifluoromethyl)phenyl}-3,6-dihydro-2H-1,3,4-oxadiazin-2-one], the IC50 in data set [1] stood at 3 nM; in data set [2], 12 nM; in data set [3] it was 0.26 µM; in data set [4] it was 0.18 µM; in data set [5], 10 nM.

For the molecule `C[C@@H]1OC(=O)NN=C1c1ccc(CN2CCOCC2)c(C(F)(F)F)c1` [Example 196, (6S)-6-Methyl-5-{4-[(morpholin-4-yl)methyl]-3-(trifluoromethyl)phenyl}-3,6-dihydro-2H-1,3,4-oxadiazin-2-one], the IC50 in data set [1] was 15 nM; in data set [2], 31 nM; in data set [3], 0.79 µM; in data set [4] it was 0.81 µM; in data set [5] it was 33 nM.

Take `C[C@@H]1OC(=O)NN=C1c1ccc(N2CC(F)(F)C2)c(C(F)(F)F)c1` [Example 279, (6S)-5-[4-(3,3-Difluoroazetidin-1-yl)-3-(trifluoromethyl)phenyl]-6-methyl-3,6-dihydro-2H-1,3,4-oxadiazin-2-one]: the IC50 in data set [1] amounted to 1 nM; in data set [2], 2 nM; in data set [5], 2 nM.

`C[C@@H]1OC(=O)NN=C1c1ccc(-c2ccncc2)c(C(F)(F)F)c1` [Example 166, (6S)-6-Methyl-5-[4-(pyridin-4-yl)-3-(trifluoromethyl)phenyl]-3,6-dihydro-2H-1,3,4-oxadiazin-2-one]: the IC50 amounted to 1 nM in data set [1]; 1 nM in data set [2]; 0.042 µM in data set [3]; 0.069 µM in data set [4]; 1 nM in data set [5].

As for `O=C1NN=C(c2ccc(-c3ccc(F)cc3)c(OC(F)(F)F)c2)CO1` [Example 76, 5-[4′-Fluoro-2-(trifluoromethoxy)biphenyl-4-yl]-3,6-dihydro-2H-1,3,4-oxadiazin-2-one], the IC50 came to 6 nM in data set [1]; 13 nM in data set [2]; 0.25 µM in data set [3]; 0.225 µM in data set [4]; 13 nM in data set [5]. Moreover, in data set [6], the Clblood was 4.5 mL/min/kg. In addition, in data set [6], the Fmax is recorded as 80%.

As for `CC1(C#N)CN(c2ccc(C3=NNC(=O)OC3)cc2C(F)(F)F)C1` [Example 251, 3-Methyl-1-[4-(2-oxo-3,6-dihydro-2H-1,3,4-oxadiazin-5-yl)-2-(trifluoromethyl)phenyl]azetidine-3-carbonitrile], the IC50 was 2 nM in data set [1]; 5 nM in data set [2]; 0.097 µM in data set [3]; 0.061 µM in data set [4]; 4 nM in data set [5].

Take `C[C@@H]1OC(=O)NN=C1c1ccc(-c2cnn(C(F)F)c2)c(C(F)(F)F)c1` [Example 190, (6S)-5-{4-[1-(Difluoromethyl)-1H-pyrazol-4-yl]-3-(trifluoromethyl)phenyl}-6-methyl-3,6-dihydro-2H-1,3,4-oxadiazin-2-one]: the IC50 worked out at 0.2 nM in data set [1]; 0.4 nM in data set [2]; 0.025 µM in data set [3]; 0.038 µM in data set [4]; 0.4 nM in data set [5]. Further, in data set [6], the Clblood is 15 mL/min/kg. For the same molecule, the Fmax in data set [6] is 32%.

With `CC1OC(=O)NN=C1c1ccc(N2CCOCC2)c(C(F)(F)F)c1` (racemic) [Example 126, (rac)-6-Methyl-5-(4-morpholino-3-(trifluoromethyl)phenyl)-3,6-dihydro-2H-1,3,4-oxadiazin-2-one], the IC50 is 1 nM in data set [1]; 1 nM in data set [2]; 0.008 µM in data set [3]; 0.012 µM in data set [4]; 2 nM in data set [5].

`N#CC1CCN(c2ccc(C3=NNC(=O)OC3)cc2C(F)(F)F)CC1` [Example 239, 1-[4-(2-Oxo-3,6-dihydro-2H-1,3,4-oxadiazin-5-yl)-2-(trifluoromethyl)phenyl]piperidine-4-carbonitrile]: the IC50 in data set [1] is 0.3 nM; in data set [2] it was 1 nM; in data set [3], 0.026 µM; in data set [4], 0.027 µM; in data set [5], 1 nM.

Turning to `CNc1ccc(C2=NNC(=O)OC2)cc1C(F)(F)F` [Example 276, 5-[4-(Methylamino)-3-(trifluoromethyl)phenyl]-3,6-dihydro-2H-1,3,4-oxadiazin-2-one], the IC50 amounted to 27 nM in data set [1]; 49 nM in data set [2]; 0.24 µM in data set [3]; 0.079 µM in data set [4]; 50 nM in data set [5].

With `C[C@@H]1OC(=O)NN=C1c1ccc(-n2cnc(C(F)(F)F)c2)c(C(F)(F)F)c1` [Example 266, (6S)-6-Methyl-5-{3-(trifluoromethyl)-4-[4-(trifluoromethyl)-1H-imidazol-1-yl]phenyl}-3,6-dihydro-2H-1,3,4-oxadiazin-2-one], the IC50 in data set [1] was 19 nM; in data set [2], 35 nM; in data set [3], 0.93 µM; in data set [4], greater than 1 µM; in data set [5] it was 65 nM.

Consider `CC1OC(=O)NN=C1c1ccc(-c2ccc(F)cc2)c(C(F)(F)F)c1` (racemic) [Example 192, (rac)-5-[4′-Fluoro-2-(trifluoromethyl)[1,1′-biphenyl]-4-yl]-6-methyl-3,6-dihydro-2H-1,3,4-oxadiazin-2-one], for which the IC50 in data set [1] was determined as 2 nM; in data set [2] it was 6 nM; in data set [3], 0.12 µM; in data set [4], 0.32 µM; in data set [5] it was 7 nM.

Take `O=C1NN=C(c2ccc(NCc3cnccn3)c(C(F)(F)F)c2)CO1` [Example 226, 5-[4-{[(Pyrazin-2-yl)methyl]amino}-3-(trifluoromethyl)phenyl]-3,6-dihydro-2H-1,3,4-oxadiazin-2-one]: the IC50 in data set [1] was determined as 1 nM; in data set [2], 2 nM; in data set [3] it was 0.187 µM; in data set [4] it was 0.128 µM; in data set [5] it was 2 nM.

Take `O=C1NN=C(c2ccc(N3CCC(F)(F)CC3)c(C(F)(F)F)c2)CO1` [Example 232, 5-[4-(4,4-Difluoropiperidin-1-yl)-3-(trifluoromethyl)phenyl]-3,6-dihydro-2H-1,3,4-oxadiazin-2-one]: the results for the IC50 in data set [1], in data set [2] and in data set [5] were 2 nM, 5 nM and 4 nM, respectively.

On to `CC1OC(=O)NN=C1c1ccc(-c2cnn(C(F)F)c2)c(C(F)(F)F)c1` (racemic) [Example 191, (rac)-5-{4-[1-(Difluoromethyl)-1H-pyrazol-4-yl]-3-(trifluoromethyl)phenyl}-6-methyl-3,6-dihydro-2H-1,3,4-oxadiazin-2-one], for which the IC50 in data set [1] stood at 0.4 nM; in data set [2], 1 nM; in data set [3] it was 0.057 µM; in data set [4] it was 0.048 µM; in data set [5] it was 1 nM.

For the molecule `C[C@@H]1OC(=O)NN=C1c1ccc(-c2ccc(O)cc2)c(C(F)(F)F)c1` [Example 174, (6S)-5-[4′-Hydroxy-2-(trifluoromethyl)[1,1′-biphenyl]-4-yl]-6-methyl-3,6-dihydro-2H-1,3,4-oxadiazin-2-one], the IC50 in data set [1] came to 1 nM; in data set [2] it was 1 nM; in data set [3] it was 0.016 µM; in data set [4] it was 0.027 µM; in data set [5], 1 nM.

One may read the IC50 as the concentration needed to halve the response being measured.

Source of the values: patent US11427553B2, “Dihydrooxadiazinones” (Bayer Aktiengesellschaft, priority 2017, dated 2022).
